# Assay results: US8148391B2 (Cephalon, Inc., priority 2006, dated 2012)
# Where two headings read alike, the source gives them in different places.
# Legend:
# [1] = target: T1, baculovirus-expressed ALK (Homo sapiens, UniProt Q9UM73); experiment: ALK Kinase Assay (ELISA-type, time-resolved fluorescence); format: biochemical
# T1 construct: host or cells: baculovirus expression system
# In short: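 Plates coated with phospholipase C-γ substrate (10 μg/mL in TBS); reaction started with 30 ng/ml ALK and run 15 min at 37° C. Phosphorylated substrate detected with Eu-N1-labeled PT66 antibody. IC50 from sigmoidal variable-slope fit of percent inhibition vs log concentration.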
# [2] = target: T2, c-Met (cytoplasmic domain) (Homo sapiens, UniProt P08581); experiment: c-Met Kinase Assay (same methods as for ALK, with modifications); format: biochemical
# T2 construct: 10 ng/mL c-Met (cytoplasmic domain, Invitrogen Corporation #PV3143); purchased Invitrogen Corporation PV3143
# In short: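 Plates were coated with phospholipase C-γ substrate (10 μg/mL) in TBS, and the reaction was started with 10 ng/mL c-Met cytoplasmic domain and run 15 min at 37 °C. Phosphoproduct was detected with Eu-N1-labelled PT66 antibody. IC50 came from a variable-slope sigmoidal fit of percent inhibition vs log concentration.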
# [3] = 1 μM ATP (Km level), read-out: ALK Activity (ALK Kinase Inhibition, IC50)
# [4] = 1 μM ATP (Km level), read-out: cMet Activity (c-Met Kinase Inhibition, IC50)
# [5] = 1 μM ATP (Km level), 30 ng/ml ALK, 37° C., 15 minutes, read-out: ALK Activity (ALK kinase inhibition, IC50 class)
# [6] = 1 μM ATP (Km level), 10 ng/mL c-Met, read-out: cMet Activity (c-Met kinase inhibition, IC50 class)
# [7] = ALK kinase inhibition, 1 μM ATP (Km level), read-out: ALK Activity
# [8] = c-Met kinase inhibition, 1 μM ATP (Km level), read-out: cMet Activity
# [9] = ALK kinase inhibition, 1 μM ATP, read-out: ALK Activity
# [10] = c-Met kinase inhibition, 1 μM ATP, read-out: cMet Activity
# T2 sequence (P08581 956-1390 limits assumed): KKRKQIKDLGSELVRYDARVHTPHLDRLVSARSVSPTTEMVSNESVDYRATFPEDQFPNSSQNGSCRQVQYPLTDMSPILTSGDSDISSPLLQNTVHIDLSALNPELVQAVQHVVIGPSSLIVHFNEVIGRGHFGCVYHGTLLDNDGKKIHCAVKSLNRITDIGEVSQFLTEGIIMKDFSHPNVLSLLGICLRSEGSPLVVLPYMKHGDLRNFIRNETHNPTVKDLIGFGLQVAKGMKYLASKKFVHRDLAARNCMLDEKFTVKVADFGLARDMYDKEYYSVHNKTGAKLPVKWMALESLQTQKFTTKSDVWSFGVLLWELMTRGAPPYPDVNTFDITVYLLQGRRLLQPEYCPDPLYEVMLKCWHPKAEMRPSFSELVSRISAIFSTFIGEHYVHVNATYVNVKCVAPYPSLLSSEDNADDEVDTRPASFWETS
# T1 sequence (Q9UM73 19-1620): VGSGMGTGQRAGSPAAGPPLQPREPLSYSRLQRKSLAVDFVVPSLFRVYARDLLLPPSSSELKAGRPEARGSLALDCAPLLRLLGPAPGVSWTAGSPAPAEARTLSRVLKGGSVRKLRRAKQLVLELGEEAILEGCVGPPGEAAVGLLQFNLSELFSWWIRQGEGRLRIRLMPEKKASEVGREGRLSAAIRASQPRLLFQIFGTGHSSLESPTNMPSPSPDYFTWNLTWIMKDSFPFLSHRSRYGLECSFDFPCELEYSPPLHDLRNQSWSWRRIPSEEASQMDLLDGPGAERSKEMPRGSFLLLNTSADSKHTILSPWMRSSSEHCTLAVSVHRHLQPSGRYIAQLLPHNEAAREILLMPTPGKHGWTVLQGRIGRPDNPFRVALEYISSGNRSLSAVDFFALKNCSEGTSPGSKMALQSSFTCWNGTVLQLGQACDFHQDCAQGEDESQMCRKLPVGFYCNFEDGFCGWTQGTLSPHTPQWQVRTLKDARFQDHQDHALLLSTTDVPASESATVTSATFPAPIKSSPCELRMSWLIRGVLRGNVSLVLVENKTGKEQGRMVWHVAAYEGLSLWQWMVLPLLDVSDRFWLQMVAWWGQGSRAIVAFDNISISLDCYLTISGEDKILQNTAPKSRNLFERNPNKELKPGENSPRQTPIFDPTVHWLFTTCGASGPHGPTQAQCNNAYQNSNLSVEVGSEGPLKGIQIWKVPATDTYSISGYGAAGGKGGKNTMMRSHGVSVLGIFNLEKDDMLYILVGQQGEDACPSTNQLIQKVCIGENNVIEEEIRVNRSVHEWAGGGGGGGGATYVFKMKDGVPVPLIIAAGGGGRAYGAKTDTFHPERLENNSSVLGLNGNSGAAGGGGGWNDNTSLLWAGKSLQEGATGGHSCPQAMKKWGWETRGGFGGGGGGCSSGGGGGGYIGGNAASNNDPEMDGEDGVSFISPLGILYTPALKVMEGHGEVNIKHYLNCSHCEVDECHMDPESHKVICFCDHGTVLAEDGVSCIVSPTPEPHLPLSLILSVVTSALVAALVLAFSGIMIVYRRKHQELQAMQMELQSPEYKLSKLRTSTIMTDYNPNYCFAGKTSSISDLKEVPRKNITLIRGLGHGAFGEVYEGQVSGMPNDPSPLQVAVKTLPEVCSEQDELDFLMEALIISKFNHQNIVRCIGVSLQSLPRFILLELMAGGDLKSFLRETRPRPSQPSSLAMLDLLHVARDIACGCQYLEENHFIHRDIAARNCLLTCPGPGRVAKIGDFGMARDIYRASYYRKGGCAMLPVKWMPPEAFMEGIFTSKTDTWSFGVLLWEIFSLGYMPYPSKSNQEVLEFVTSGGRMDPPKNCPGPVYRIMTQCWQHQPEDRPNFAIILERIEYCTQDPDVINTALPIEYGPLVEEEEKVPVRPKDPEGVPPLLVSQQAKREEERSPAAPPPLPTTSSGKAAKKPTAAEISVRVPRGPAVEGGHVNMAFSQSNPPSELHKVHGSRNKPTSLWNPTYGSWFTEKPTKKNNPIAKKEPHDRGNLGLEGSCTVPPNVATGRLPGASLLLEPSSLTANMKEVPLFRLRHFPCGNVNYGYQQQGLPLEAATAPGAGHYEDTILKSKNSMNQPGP
compound,measurement,setting,value
"COc1cc(N2CCOCC2)ccc1Nc1nc(Nc2ccc3c(c2)CCC(N2CCOCC2)CC3)ncc1Cl (centres unmarked) [Example 865, 5-Chloro-N*4*-(2-methoxy-4-morpholin-4-yl-phenyl)-N*2*-(7-morpholin-4-yl-6,7,8,9-tetrahydro-5H-benzocyclohepten-2-yl)-pyrimidine-2,4-diamine]",IC50,[1]; [3],< 100 nM
same,IC50,[2]; [4],1000 to 10000 nM
"CNC(=O)c1cccc(F)c1Nc1nc(Nc2ccc3c(c2)CCN(CC(=O)N(C)C)CC3)ncc1Cl [Example 1369, 2-[5-Chloro-2-(3-dimethylcarbamoylmethyl-2,3,4,5-tetrahydro-1H-benzo[d]azepin-7-ylamino)-pyrimidin-4-ylamino]-3-fluoro-N-methyl-benzamide]",IC50,[1]; [5],< 100 nM
same,IC50,[2]; [6],< 100 nM
"O=C1CCCc2cc(Nc3ncc(Cl)c(Nc4ccccc4-c4nc(C(F)(F)F)c[nH]4)n3)ccc2N1 [Example 1012, 7-{5-Chloro-4-[2-(4-trifluoromethyl-1H-imidazol-2-yl)-phenylamino]-pyrimidin-2-ylamino}-1,3,4,5-tetrahydro-benzo[b]azepin-2-one]",IC50,[1]; [3],100 to 1000 nM
same,IC50,[2]; [4],100 to 1000 nM
"Cn1ccnc1-c1ccccc1Nc1nc(Nc2ccc3c(c2)CCC(F)(F)CC3)ncc1Cl [Example 219, 5-Chloro-N*2*-(7,7-difluoro-6,7,8,9-tetrahydro-5H-benzocyclohepten-2-yl)-N*4*-[2-(1-methyl-1H-imidazol-2-yl)-phenyl]-pyrimidine-2,4-diamine]",IC50,[1]; [7],100 to 1000 nM
same,IC50,[2]; [8],> 10000 nM
"CNC(=O)c1ccccc1Nc1nc(Nc2ccc3c(c2)CCN(CCF)CC3)ncc1Cl [Example 38, 2-{5-Chloro-2-[3-(2-fluoro-ethyl)-2,3,4,5-tetrahydro-1H-benzo[d]azepin-7-ylamino]-pyrimidin-4-ylamino}-N-methyl-benzamide]",IC50,[1]; [7],< 100 nM
same,IC50,[2]; [8],< 100 nM
"COc1c(Nc2ncc(Cl)c(N[C@H]3[C@@H](C(N)=O)[C@@H]4C=C[C@H]3C4)n2)ccc2c1CC[C@@H](N1CCOCC1)CC2 [Example 882, (1S,2S,3R,4R)-3-[5-Chloro-2-((S)-1-methoxy-7-morpholin-4-yl-6,7,8,9-tetrahydro-5H-benzocyclohepten-2-ylamino)-pyrimidin-4-ylamino]-bicyclo[2.2.1]hept-5-ene-2-carboxylic acid amide]",IC50,[1]; [3],< 100 nM
same,IC50,"[2]; cMet Activity (c-Met Kinase Inhibition, IC50), 1 μM ATP (Km level)",> 10000 nM
"COc1cc2c(cc1Nc1ncc(Cl)c(N[C@@H]3CCCC[C@H]3NS(C)(=O)=O)n1)CCN(CC(=O)N1CCCC1)CC2 [Example 1160, N-((1R,2R)-2-{5-Chloro-2-[8-methoxy-3-(2-oxo-2-pyrrolidin-1-yl-ethyl)-2,3,4,5-tetrahydro-1H-benzo[d]azepin-7-ylamino]-pyrimidin-4-ylamino}-cyclohexyl)-methanesulfonamide]",IC50,[1]; [5],< 100 nM
same,IC50,[2]; [6],> 10000 nM
"COCCOc1cccc(F)c1Nc1nc(Nc2ccc3c(c2)CCOC(=O)N3C)ncc1Cl [Example 1778, 2-{5-Chloro-4-[2-fluoro-6-(2-methoxy-ethoxy)-phenylamino]-pyrimidin-2-ylamino}-5-methyl-8,9-dihydro-5H-7-oxa-5-aza-benzocyclohepten-6-one]",IC50,[1]; [9],100 to 1000 nM
same,IC50,[2]; [10],100 to 1000 nM
"Cc1ccnc(-c2ccccc2Nc2nc(Nc3ccc4c(c3)C(C)(C)CCC(=O)N4)ncc2Cl)c1 [Example 1001, 7-{5-Chloro-4-[2-(4-methyl-pyridin-2-yl)-phenylamino]-pyrimidin-2-ylamino}-5,5-dimethyl-1,3,4,5-tetrahydro-benzo[b]azepin-2-one]",IC50,[1]; [3],100 to 1000 nM
same,IC50,[2]; [4],> 10000 nM
"COCCN1CCc2ccc(Nc3ncc(Cl)c(Nc4ccccc4Cl)n3)cc2CC1 [Example 1376, 5-Chloro-N(4)-(2-chloro-phenyl)-N(2)-[3-(2-methoxy-ethyl)-2,3,4,5-tetrahydro-1H-benzo[d]azepin-7-yl]-pyrimidine-2,4-diamine]",IC50,[1]; [5],< 100 nM
same,IC50,[2]; [6],100 to 1000 nM
"COc1cc2c(cc1Nc1ncc(Cl)c(Nc3cc(Cl)ccc3OC)n1)CCN(CC(F)F)CC2 [Example 768, 5-Chloro-N*4*-(5-chloro-2-methoxy-phenyl)-N*2*-[3-(2,2-difluoro-ethyl)-8-methoxy-2,3,4,5-tetrahydro-1H-benzo[d]azepin-7-yl]-pyrimidine-2,4-diamine]",IC50,[1]; [3],100 to 1000 nM
same,IC50,[2]; [4],> 10000 nM
"CNC(=O)c1cccc(F)c1Nc1nc(Nc2ccc3c(c2)NC(=O)C(N2CCOCC2)CC3)ncc1Cl (centres unmarked) [Example 1491, 2-[5-Chloro-2-(3-morpholin-4-yl-2-oxo-2,3,4,5-tetrahydro-1H-benzo[b]azepin-8-ylamino)-pyrimidin-4-ylamino]-3-fluoro-N-methyl-benzamide]",IC50,[1]; [9],< 100 nM
same,IC50,[2]; [10],< 100 nM
"Cc1nnc(-c2ccccc2Nc2nc(Nc3ccc4c(c3)CCOC(=O)N4C)ncc2Cl)s1 [Example 1494, 2-{5-Chloro-4-[2-(5-methyl-[1,3,4]thiadiazol-2-yl)-phenylamino]-pyrimidin-2-ylamino}-5-methyl-8,9-dihydro-5H-7-oxa-5-aza-benzocyclohepten-6-one]",IC50,[1]; [9],100 to 1000 nM
same,IC50,[2]; [10],< 100 nM
"CCN1CCc2ccc(Nc3ncc(F)c(Nc4ccccc4C(=O)NC)n3)cc2CC1 [Example 196, 2-[2-(3-Ethyl-2,3,4,5-tetrahydro-1H-benzo[d]azepin-7-ylamino)-5-fluoro-pyrimidin-4-ylamino]-N-methyl-benzamide]",IC50,[1]; [7],< 100 nM
same,IC50,[2]; [8],< 100 nM
"COCCN1CCc2ccc(Nc3ncc(Cl)c(NC(C)CNS(C)(=O)=O)n3)cc2CC1 (centres unmarked) [Example 303, N-(2-{5-Chloro-2-[3-(2-methoxy-ethyl)-2,3,4,5-tetrahydro-1H-benzo[d]azepin-7-ylamino]-pyrimidin-4-ylamino}-propyl)-methanesulfonamide]",IC50,[1]; [7],100 to 1000 nM
same,IC50,[2]; [8],1000 to 10000 nM
"CNC(=O)c1cccc(F)c1Nc1nc(Nc2ccc3c(c2)NCCCC3(C)C)ncc1Cl [Example 1611, 2-[5-Chloro-2-(5,5-dimethyl-2,3,4,5-tetrahydro-1H-benzo[b]azepin-8-ylamino)-pyrimidin-4-ylamino]-3-fluoro-N-methyl-benzamide]",IC50,[1]; [9],100 to 1000 nM
same,IC50,[2]; [10],< 100 nM
"COCCN1CCc2ccc(Nc3ncc(Cl)c(N[C@@H]4CCCC[C@H]4N(CC#N)S(C)(=O)=O)n3)cc2CC1 [Example 1383, N-((1R,2R)-2-{5-Chloro-2-[3-(2-methoxy-ethyl)-2,3,4,5-tetrahydro-1H-benzo[d]azepin-7-ylamino]-pyrimidin-4-ylamino}-cyclohexyl)-N-cyanomethyl-methanesulfonamide]",IC50,[1]; [5],100 to 1000 nM
same,IC50,[2]; [6],1000 to 10000 nM
"CNC(=O)c1ccccc1Nc1nc(Nc2cccc3c2C(=O)N(C)CCN3C)ncc1Cl [Example 213, 2-[5-Chloro-2-(1,4-dimethyl-5-oxo-2,3,4,5-tetrahydro-1H-benzo[e][1,4]diazepin-6-ylamino)-pyrimidin-4-ylamino]-N-methyl-benzamide]",IC50,[1]; [7],1000 to 10000 nM
same,IC50,[2]; [8],> 10000 nM
"COc1ccc2c(c1Nc1ncc(Cl)c(N[C@@H]3CCCC[C@H]3NS(C)(=O)=O)n1)CCC(N1CCOCC1)CC2 (stereo partly drawn) [Example 1070, N-{(1R,2R)-2-[5-Chloro-2-(2-methoxy-7-morpholin-4-yl-6,7,8,9-tetrahydro-5H-benzocyclohepten-1-ylamino)-pyrimidin-4-ylamino]-cyclohexyl}-methanesulfonamide]",IC50,[1]; [5],100 to 1000 nM
same,IC50,[2]; [6],> 10000 nM
"2-[2-(8-Amino-4H,6H-3,5,10b-triaza-benzo[e]azulen-5-yl)-5-chloro-pyrimidin-4-ylamino]-3-fluoro-N-methyl-benzamide [Example 1467]",IC50,[1]; [9],1000 to 10000 nM
same,IC50,[2]; [10],1000 to 10000 nM
"COCCN1CCc2ccc(Nc3ncc(Cl)c(N[C@H]4CC[C@H](NS(C)(=O)=O)CC4)n3)cc2CC1 [Example 1378, trans-N-(4-{5-Chloro-2-[3-(2-methoxy-ethyl)-2,3,4,5-tetrahydro-1H-benzo[d]azepin-7-ylamino]-pyrimidin-4-ylamino}-cyclohexyl)-methanesulfonamide]",IC50,[1]; [5],100 to 1000 nM
same,IC50,[2]; [6],> 10000 nM
"COCCNC1CCc2ccc(Nc3ncc(Cl)c(N[C@@H]4CCCC[C@H]4NS(C)(=O)=O)n3)c(OC)c2CC1 (single isomer, unassigned) [Example 694]",IC50,[1]; [3],< 100 nM
same,IC50,[2]; [4],> 10000 nM
"Cc1cccnc1-c1ccccc1Nc1nc(Nc2ccc3c(c2)CCC(O)CC3)ncc1Cl (centres unmarked) [Example 1021, 2-{5-Chloro-4-[2-(3-methyl-pyridin-2-yl)-phenylamino]-pyrimidin-2-ylamino}-6,7,8,9-tetrahydro-5H-benzocyclohepten-7-ol]",IC50,[1]; [5],100 to 1000 nM
same,IC50,[2]; [6],1000 to 10000 nM
"CN1Cc2cc(Nc3ncc(Cl)c(Nc4ccccc4-c4cc[nH]n4)n3)ccc2CCC1=O [Example 1804, 8-{5-Chloro-4-[2-(1H-pyrazol-3-yl)-phenylamino]-pyrimidin-2-ylamino}-2-methyl-1,2,4,5-tetrahydro-benzo[c]azepin-3-one]",IC50,[1]; [9],< 100 nM
same,IC50,[2]; [10],100 to 1000 nM
"CN1CCN(C)c2cccc(Nc3ncc(Cl)c(Nc4ccccc4NS(C)(=O)=O)n3)c2C1=O [Example 215, N-{2-[5-Chloro-2-(1,4-dimethyl-5-oxo-2,3,4,5-tetrahydro-1H-benzo[e][1,4]diazepin-6-ylamino)-pyrimidin-4-ylamino]-phenyl}-methanesulfonamide]",IC50,[1]; [7],> 10000 nM
same,IC50,[2]; [8],> 10000 nM
